Laboratory results taken from PubChem BioAssay AID248 (DTP/NCI, 2004).
Where “and” joins values, the source holds several entries; their conditions need not be identical. Identical values can stand only once. Toxic doses and inconclusive results are not listed. Cut-off read from the data, not from the text of the source: active = T/C of 150% or more; inactive = T/C below 125%.

Tested on: L1210 leukemia ip in BDF1 mice, survival T/C
Experiment: NCI In Vivo Anticancer Drug Screen. Data for tumor model L1210 Leukemia (intraperitoneal) in B6D2F1 (BDF1) mice
Settings: endpoint: mean survival time, higher = longer survival
Outline: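 Ratio derived from survival: compound-dosed mice over vehicle-dosed mice, all bearing a transplantable tumor.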

[1] = dose: 100.0 mg/kg/injection, schedule: Q01DX009 (ip), vehicle: Klucel (hydroxypropylcellulose) (HPC)
[2] = dose: 100.0 mg/kg/injection, schedule: Q04DX003 (ip), vehicle: Klucel (hydroxypropylcellulose) (HPC)
[3] = dose: 200.0 mg/kg/injection, schedule: Q01DX009 (ip), vehicle: Klucel (hydroxypropylcellulose) (HPC)
[4] = dose: 200.0 mg/kg/injection, schedule: Q04DX003 (ip), vehicle: Klucel (hydroxypropylcellulose) (HPC)
[5] = dose: 400.0 mg/kg/injection, schedule: Q01DX009 (ip), vehicle: Klucel (hydroxypropylcellulose) (HPC)
[6] = dose: 400.0 mg/kg/injection, schedule: Q04DX003 (ip), vehicle: Klucel (hydroxypropylcellulose) (HPC)
[7] = dose: 50.0 mg/kg/injection, schedule: Q01DX001 (ip), vehicle: saline
[8] = dose: 100.0 mg/kg/injection, schedule: Q01DX001 (ip), vehicle: saline
[9] = dose: 200.0 mg/kg/injection, schedule: Q01DX001 (ip), vehicle: saline
[10] = dose: 400.0 mg/kg/injection, schedule: Q01DX001 (ip), vehicle: saline
[11] = dose: 100.0 mg/kg/injection, schedule: Q01DX001 (ip), vehicle: Klucel (hydroxypropylcellulose) (HPC)
[12] = dose: 200.0 mg/kg/injection, schedule: Q01DX001 (ip), vehicle: Klucel (hydroxypropylcellulose) (HPC)
[13] = dose: 100.0 mg/kg/injection, schedule: Q01DX009 (ip), vehicle: saline with Tween-80
[14] = dose: 100.0 mg/kg/injection, schedule: Q04DX003 (ip), vehicle: saline with Tween-80
[15] = dose: 200.0 mg/kg/injection, schedule: Q01DX009 (ip), vehicle: saline with Tween-80
[16] = dose: 200.0 mg/kg/injection, schedule: Q04DX003 (ip), vehicle: saline with Tween-80
[17] = dose: 400.0 mg/kg/injection, schedule: Q01DX009 (ip), vehicle: saline with Tween-80
[18] = dose: 400.0 mg/kg/injection, schedule: Q04DX003 (ip), vehicle: saline with Tween-80

Measured: T/C

Cc1cc2c(C)c3cc(C)c(C)c(C)c3cc2c(C)c1C
inactive: dose: 25.0 mg/kg/injection, schedule: Q01DX005 (ip), vehicle: water 114 % of control | dose: 50.0 mg/kg/injection, schedule: Q01DX005 (ip), vehicle: water 94 % of control | dose: 100.0 mg/kg/injection, schedule: Q01DX005 (ip), vehicle: water 94 % of control and 97 % of control | dose: 200.0 mg/kg/injection, schedule: Q01DX005 (ip), vehicle: water 96 % of control | dose: 400.0 mg/kg/injection, schedule: Q01DX005 (ip), vehicle: water 100 % of control

Cc1ccc(S(=O)(=O)OCC2C(COS(=O)(=O)c3ccc(C)cc3)C3CCC2C3C(c2ccccc2)c2ccccc2)cc1 (centres undefined)
inactive: [1] 103 % of control | [2] 98 % of control | [3] 94 % of control | [4] 102 % of control | [5] 111 % of control | [6] 96 % of control

CC(=O)OCC1OC(n2cnc3c(=S)nc(N)[nH]c32)CC1OC(C)=O (centres undefined)
inactive: dose: 2.5 mg/kg/injection, schedule: Q01DX002 (ip), vehicle: Klucel (hydroxypropylcellulose) (HPC) 118 % of control | dose: 5.0 mg/kg/injection, schedule: Q04DX003 (ip), vehicle: Klucel (hydroxypropylcellulose) (HPC) 117 % of control | dose: 10.0 mg/kg/injection, schedule: Q01DX002 (ip), vehicle: Klucel (hydroxypropylcellulose) (HPC) 119 % of control | dose: 10.0 mg/kg/injection, schedule: Q04DX003 (ip), vehicle: Klucel (hydroxypropylcellulose) (HPC) 121 % of control | dose: 20.0 mg/kg/injection, schedule: Q01DX002 (ip), vehicle: Klucel (hydroxypropylcellulose) (HPC) 123 % of control

OB1OB(OB2OB(O)O2)O1
inactive: [7] 92 % of control | [8] 92 % of control | [9] 108 % of control | [10] 113 % of control

CCOC(OCC)c1ccccc1
inactive: [7] 113 % of control | [8] 115 % of control | [9] 109 % of control | [10] 113 % of control

COc1cc([N+](=O)[O-])ccc1NC(=O)Nc1ccccc1F
inactive: [1] 98 % of control | [3] 93 % of control | [5] 89 % of control

O=[N+]([O-])c1ccc2nc(-c3ccccc3)c(-c3ccccc3)nc2c1
inactive: [1] 102 % of control | [2] 98 % of control | [3] 105 % of control | [4] 104 % of control | [5] 96 % of control | [6] 104 % of control

O=C(N/N=C/c1[nH]c(=S)[nH]c(=O)c1Cc1ccc(Cl)cc1)c1ccncc1
inactive: [11] 104 % of control | [12] 101 % of control | dose: 400.0 mg/kg/injection, schedule: Q01DX001 (ip), vehicle: Klucel (hydroxypropylcellulose) (HPC) 98 % of control

COc1ccc2nc(NC3=NCCO3)sc2c1
inactive: [1] 98 % of control | [3] 94 % of control | [5] 93 % of control

CCN(CC)CCCNc1cc(Cl)c(Cl)cc1[N+](=O)[O-]
inactive: dose: 12.0 mg/kg/injection, schedule: Q01DX009 (ip), vehicle: saline 104 % of control | dose: 25.0 mg/kg/injection, schedule: Q01DX009 (ip), vehicle: saline 95 % of control | dose: 50.0 mg/kg/injection, schedule: Q01DX009 (ip), vehicle: saline 91 % of control | dose: 100.0 mg/kg/injection, schedule: Q04DX003 (ip), vehicle: saline 95 % of control | dose: 200.0 mg/kg/injection, schedule: Q04DX003 (ip), vehicle: saline 90 % of control | dose: 400.0 mg/kg/injection, schedule: Q04DX003 (ip), vehicle: saline 96 % of control

CCCC[P+](C)(CCCC)CCCC
inactive: dose: 8.8 mg/kg/injection, schedule: Q01DX Z (ip), vehicle: saline 98 % of control | dose: 13.3 mg/kg/injection, schedule: Q01DX Z (ip), vehicle: saline 93 % of control | dose: 20.0 mg/kg/injection, schedule: Q01DX Z (ip), vehicle: saline 86 % of control

CC(=O)Nc1nc2[nH]ccc2c(=O)[nH]1
inactive: dose: 75.0 mg/kg/injection, schedule: Q01DX001 (ip), vehicle: other 106 % of control | dose: 150.0 mg/kg/injection, schedule: Q01DX001 (ip), vehicle: other 104 % of control | dose: 300.0 mg/kg/injection, schedule: Q01DX001 (ip), vehicle: other 103 % of control

O=C(O)CCC(NC(=O)OCc1ccccc1)C(=O)O (centres undefined)
inactive: [13] 100 % of control | [2] 103 % of control | dose: 100.0 mg/kg/injection, schedule: Q04DX003 (ip), vehicle: other 98 % of control | [14] 104 % of control and 95 % of control | [15] 98 % of control | [4] 99 % of control | dose: 200.0 mg/kg/injection, schedule: Q04DX003 (ip), vehicle: other 102 % of control | [16] 101 % of control and 92 % of control | [17] 98 % of control | [6] 91 % of control | dose: 400.0 mg/kg/injection, schedule: Q04DX003 (ip), vehicle: other 98 % of control | [18] 101 % of control and 104 % of control

CCCCNC(=O)OC/C=C/CC(Cl)(Cl)Cl
inactive: dose: 100.0 mg/kg/injection, schedule: Q01DX009 (sc), vehicle: olive oil, sesame oil, peanut oil 103 % of control | dose: 100.0 mg/kg/injection, schedule: Q04DX003 (sc), vehicle: olive oil, sesame oil, peanut oil 95 % of control | dose: 200.0 mg/kg/injection, schedule: Q01DX009 (sc), vehicle: olive oil, sesame oil, peanut oil 101 % of control | dose: 200.0 mg/kg/injection, schedule: Q04DX003 (sc), vehicle: olive oil, sesame oil, peanut oil 108 % of control | dose: 400.0 mg/kg/injection, schedule: Q01DX009 (sc), vehicle: olive oil, sesame oil, peanut oil 101 % of control | dose: 400.0 mg/kg/injection, schedule: Q04DX003 (sc), vehicle: olive oil, sesame oil, peanut oil 94 % of control

CCC(CC)(COC(=O)c1ccc(N)cc1)C1CCCCC1
inactive: dose: 150.0 mg/kg/injection, schedule: Q01DX001 (ip), vehicle: carboxymethylcellulose (CMC) 94 % of control

CC(=O)Oc1cc(C=O)cc(OC(C)=O)c1OC(C)=O
inactive: [13] 106 % of control | [14] 106 % of control | [15] 118 % of control | [16] 121 % of control | [17] 90 % of control | [18] 108 % of control

CCN(CC)C(=O)CBr
inactive: dose: 50.0 mg/kg/injection, schedule: Q01DX001 (ip), vehicle: Klucel (hydroxypropylcellulose) (HPC) 99 % of control | [11] 99 % of control | [12] 97 % of control
